# PubChem BioAssay AID1996
# Settings: buffer; pH 7.4; 200.0 µM
row,SMILES,solubility kinetic
1,CC(=O)c1cccc(NC(=O)CNC(=O)Cc2cccc3ccccc23)c1,8.4 µg/mL
2,O=C1C(C=Nc2ccc(F)cc2)=C(O)c2ccccc21,< 0.6 µg/mL
3,O=C1C2CCCCN2C(=O)N1CCCN1CCN(c2ccc(F)cc2)CC1 (stereo not drawn),48.1 µg/mL
4,Cc1cc(-c2cccc(Br)c2)c(C#N)c(N)n1,3.1 µg/mL
5,O=C(CC1SC(=Nc2ccc(O)cc2)NC1=O)Nc1ccccc1 (stereo not drawn),3.9 µg/mL
6,Cc1ccc(NC(=O)CCN2CCC(C)CC2)cc1.Cl,> 44.5 µg/mL
7,CC1(C)CC(=O)N(c2cccc(C(F)(F)F)c2)C(=O)C1,8.1 µg/mL
8,Cc1cc2oc(=O)cc(CN3CCOCC3)c2cc1O,> 41.3 µg/mL
9,c1ccc(NC2=Nc3cccc4cccc2c34)cc1,0.6 µg/mL
10,O=Cc1cn(CCOc2ccccc2)c2ccccc12,12.9 µg/mL
11,Cc1[nH]c2ccccc2c1C(=O)CSC(=S)N1CCOCC1,2.4 µg/mL
12,OC(CN1CCN(c2ccccc2F)CC1)c1ccc(F)cc1 (stereo not drawn),> 47.8 µg/mL
13,CC(=O)NS(=O)(=O)c1ccc(NC(=O)CSc2ccccc2)cc1,42.5 µg/mL
14,O=C1NC(=O)C(C(CC(=O)c2ccccc2)c2ccccc2)C(=O)N1 (stereo not drawn),> 50.5 µg/mL
15,Cc1cccc(C2NC(=O)c3ccccc3O2)c1 (stereo not drawn),24.3 µg/mL
16,CC(=O)Nc1ccc2nc(NC(=O)c3ccco3)sc2c1,4.9 µg/mL
17,CCOc1cc2c(cc1OC)C(NC(=O)c1ccco1)CC2=O (stereo not drawn),> 47.3 µg/mL
18,CCOC(=O)c1cc2sccc2n1CC(=O)C(C)(C)C,< 0.6 µg/mL
19,CCNC(=S)NC1CC2CCCC(C1)N2Cc1ccc(C)cc1 (stereo not drawn),47.7 µg/mL
20,O=C(CS(=O)(=O)c1ccccc1)Nc1ccccn1,> 41.4 µg/mL
21,Cc1nc(C)c(C(=O)OCC(=O)N(C)c2ccccc2)s1,> 45.7 µg/mL
22,CCOc1ccccc1Nc1cc(C)nc2ccc(C)cc12,> 43.9 µg/mL
23,Cc1ccc(CNC(=O)C2CC=CCC2C(=O)O)cc1 (stereo not drawn),> 41 µg/mL
24,Cc1cc(NC(=O)c2ccc(F)cc2)ccc1NC(=O)c1ccco1,3.4 µg/mL

row,SMILES,solubility kinetic
1,Cc1cccc(NC(=O)c2cc[n+]([O-])cc2)c1C,> 36.3 µg/mL
2,O=C(O)CCCN1C(=O)/C(=C/c2ccncc2)SC1=S,> 46.3 µg/mL
3,CC1CC(C#N)N(N(C)C)C1=C(C#N)C#N (stereo not drawn),> 32.3 µg/mL
4,CC1(C2CC(C(F)(F)F)n3nc(C(=O)O)cc3N2)CC1 (stereo not drawn),> 43.4 µg/mL
5,CCOC(=O)COc1nc(-c2ccccc2)cc(-c2ccco2)c1C#N,< 0.4 µg/mL
6,CC(=O)c1csc(-c2ccccc2)n1,16.6 µg/mL
7,COc1ccc(C(=O)NN2CCOCC2)cc1,> 35.4 µg/mL
8,CCOC(=O)c1ccc(NC(=O)N2CCc3ccccc3C2)cc1,19.2 µg/mL
9,CC(=O)Nc1ccc(Oc2ccc(NC(C)=O)c(NC(C)=O)c2)cc1,> 51.2 µg/mL
10,COc1cc(-c2csc(NC3CCCCC3)n2)cc(OC)c1OC,6.6 µg/mL
11,N#Cc1ccc(-c2csc(-c3ccno3)n2)cc1,1.2 µg/mL
12,CC(=O)c1ccc(OCc2cc([N+](=O)[O-])cc3c2OCOC3)cc1,2.6 µg/mL
13,COc1ccc(C(=O)CSc2nc3ncccc3[nH]2)cc1OC,13.4 µg/mL
14,CC(=O)c1ccc(NC(=O)CN2C(=O)NC3(CCCc4ccccc43)C2=O)cc1 (stereo not drawn),> 58.7 µg/mL
15,O=C(O)C1CCCCN1C(=O)c1cc2c(s1)CCCCC2 (stereo not drawn),> 46.1 µg/mL
16,COc1ccc(C(=O)CN2C(=O)c3ccccc3C2=O)c(OC)c1,1.3 µg/mL
17,Cc1cccc(C)c1NC(=O)C1C2C=CC(C2)C1C(=O)O (stereo not drawn),39.7 µg/mL
18,O=c1[nH]c(=S)n(Cc2ccc(F)cc2)c(O)c1C=NCc1ccc2c(c1)OCO2,0.4 µg/mL
19,O=S(=O)(Nc1ccc2ccccc2n1)c1ccccc1,> 42.6 µg/mL
20,CC(C)NC(=NCc1ccc(Cl)cc1Cl)Nc1ccccc1,> 50.4 µg/mL
21,Cc1ccc(C)c(OCC(=O)N2CCc3ccccc3C2)c1,22.3 µg/mL
22,CCN1CCN(C(=O)c2ccc(C(F)(F)F)cc2)CC1,40.6 µg/mL
23,O=C(Nc1ccc(NC(=O)c2ccco2)nc1)c1cccc(F)c1,1.9 µg/mL
24,Cc1[nH]c2ccc(C(=O)NCCN3CCOCC3)cc2c1C,> 45.2 µg/mL
